Data reported in BigSolDB 2.1.

NC(=O)c1ncn([C@@H]2O[C@H](CO)[C@@H](O)[C@H]2O)n1
solubility (mole fraction)
Conditions	in DMSO	in acetone	in ethanol	in formic acid	in methanol	in n-butanol	in n-propanol	in sec-butanol	in water
283.15 K	–	3.77e-05	5.95e-05	0.0483	0.000576	7.44e-05	4.57e-05	7.85e-05	0.00879
288.15 K	–	4.45e-05	8.55e-05	0.0533	0.000665	8.95e-05	5.73e-05	8.47e-05	0.0104
293.15 K	0.0532	5.43e-05	0.000117	0.0644	0.000743	0.000117	7.99e-05	9.62e-05	0.0123
298.15 K	0.0659	6.36e-05	0.000158	0.0785	0.000865	0.000149	0.000102	0.000104	0.0144
303.15 K	0.075	7.87e-05	0.000209	0.091	0.00103	0.000175	0.000131	0.000122	0.0165
308.15 K	0.0821	9.41e-05	0.000282	0.104	0.00122	0.00021	0.000161	0.000135	0.019
313.15 K	0.095	0.000114	0.000339	0.114	0.00138	0.000246	0.000194	0.000161	0.0225
318.15 K	0.11	0.000139	0.000435	0.131	0.00169	0.000288	0.000235	0.000196	0.0269
323.15 K	0.125	0.000153	0.000552	0.159	0.00194	0.000362	0.000295	0.000224	0.0305
